Legend:
[1] = test system: mouse insulinoma MIN6 cells; assay: Viable cell activity by Calcein-AM fluorescence in MIN6 cells; format: cell-based; conditions: for cellular activity as assessed with Calcein: 30 minutes, vs KRB alone; for cellular activity expressed as Calcein intensity: MIN6 cells at 5 DIV, 1,000 μM, vs negative control KRB
Experimental: Effects of E2-ADG (synthesized in Example 2) and E2-ALG (synthesized in Example 4) on proliferation of cells were examined. A pancreatic beta cell line (insulinoma) MIN6 from mouse pancreas (Miyazaki J. et al., Endocrinology 127: 126-132, 1990) was used as the cells, and all experiments were performed using early passage cells with a passage number of 10 or less.
(§1) In this experiment, approximately 3,000 MIN6 cells per well were seeded in each well of a 96-well plate. When 5 DIV elapsed from initiation of culture, wells to which E2-ALG was administrated and wells to which E2-ADG was administrated were arranged in the same plate with minimal external disturbance, and administration was performed according to the previously established method (Sasaki, A. et al., Human Cell 2016, 29, 37-45). The E2-ALG was dissolved in a buffer to a concentration of 1,000 μM, administered to the MIN6 cells for 10 or 30 minutes, and then washed out with a buffer solution without the E2-ALG. Meanwhile, the E2-ADG at a concentration of 1,000 μM was administered in the same manner. Carbenoxolone was pre-dissolved in a buffer solution for the purpose of excluding uptake via Hemichannel and Gap junction (Sasaki, A. et al., Human Cell 2016, 29, 37-45).
A change in cellular activity was assessed using a live cell marker Calcein-AM. The Calcein-AM is permeable to a cell membrane, and after entering a cell, an AM moiety is cleaved by an esterase activity of the cell to produce Calcein which emits green fluorescence. The Calcein-AM was applied to the MIN6 cells according to a conventional method, green fluorescence emitted by the cells was quantitatively measured using a confocal quantitative image cytometer CellVoyager CQ1 (Yokogawa Electric Corporation), and image analysis was performed using software attached to the CQ1. A difference between an E2-ALG administration group and an E2-ADG administration group was statistically compared using Stat View 5.0. The Bonferroni-Dunn test was used for the statistical comparison. A value shown by MIN6 cells at the same time as above in a Krebs-Ringer buffer (KRB) solution without E2-ALG or E2-ADG was used as a negative control.
(§2) An administration test was performed in the same manner as in Example 5-1, except that M2-ADG (synthesized in Example 1) was used instead of E2-ADG, and M2-ALG (synthesized in Example 3) was used instead of E2-ALG. However, the M2-ADG or the M2-ALG was administered for 30 minutes after 4 DIV from initiation of culture, and a concentration of the M2-ADG or the M2-ALG was 10 μM, 100 μM, or 1,000 μM.

[2] = test system: mouse insulinoma MIN6 cells; assay: Cell death by Propidium Iodide (PI) signal in MIN6 cells; format: cell-based; conditions: for occurrence of cell death (PI) / PI-positive cell death: MIN6 cells at 5 DIV, 1,000 μM; for occurrence of cell death (PI): both 10-minute and 30-minute administrations, vs negative control KRB; for effect on the cells (proportion of dead cells, PI) / cytotoxicity (PI) eliminated by PHT: MIN6 cells at 11 DIV; for effect on the cells (proportion of dead cells, PI) / proportion of dead cells expressed as a PI value / cytotoxicity (PI) eliminated by PHT: 90 minutes; for effect on the cells (proportion of dead cells, PI) / proportion of dead cells expressed as a PI value: vs KRB solution alone; for proportion of dead cells expressed as a PI value: MIN6 cells at 11 DIV, 1,000 μM; for cytotoxicity (PI) eliminated by PHT: compound 1,000 μM, PHT 150 μM
Experimental: as §1
An extent of occurrence of cell death was assessed using Propidium Iodide (PI), a red dye that is impermeable to a cell membrane. The PI was applied to the MIN6 cells simultaneously with the Calcein-AM. The principle of assessing cell death using PI is as follows. […] However, when the PI nonspecifically enters a cell due to loss of integrity of a cell membrane caused by deterioration of a cell state, the PI binds to a nucleus of the cell, causing the nucleus to emit red fluorescence. A degree of the red fluorescence was quantitatively measured using the CellVoyager CQ1, and image analysis was performed using the software attached to the CQ1. Additionally, the degree of occurrence of cell death was evaluated by statistically comparing the control group with the administration groups or the E2-ALG administration group with the E2-ADG administration group.
Using MIN6 cells with a passage number of 10 or less, E2-ALG or E2-ADG was applied to the MIN6 cells at a concentration of 1,000 μM for 90 minutes at 11 DIV of culture at a time when spheroids with a diameter of 100 μm or more are normally formed. Specifically, approximately 1,000 MIN6 cells per well were seeded in each well of a 96-well plate and E2-ALG was dissolved in a buffer to a concentration of 10 μM or 1,000 μM at 11 DIV, administered to the MIN6 cells for 90 minutes, and then rapidly washed out with a buffer solution without E2-ALG. Similarly, E2-ADG was applied simultaneously to other wells in the same plate. A cell death marker PI was used to statistically compare a control group with administration groups or an E2-ALG administration group with an E2-ADG administration group (FIG. 3).
Whether cell death in MIN6 cells caused by E2-ALG and E2-ADG was via a specific transport mechanism that is inhibited by PHT was analyzed on the same plate. […] The E2-ADG was also tested simultaneously in the same manner on the same plate and both were compared to a control.
as §2

[3] = test system: nutritional deficit pancreatic cancer cells; conditions: Onodera, T. et al. J. Biol. Chem. 295, 16678-16690, 2020; cited from earlier work
colon cancer cells = conditions: Et3PAuCl alone; ACS Med. Chem. Lett. 8: 997-1001, 2017; cited from earlier work
[4] = MIN6 cells at 4 DIV, 10 μM, 30 minutes, vs negative control
[5] = MIN6 cells at 4 DIV, 100 μM, 30 minutes, vs negative control
[6] = MIN6 cells at 4 DIV, 1,000 μM, 30 minutes

Question: With CP(C)C.OC[C@@H]1OC(O)[C@@H]([S][Au])[C@H](O)[C@H]1O (stereo partly drawn) [Compound M2-ALG] as the compound, how does the “cellular activity as assessed with Calcein” value ([1]; MIN6 cells at 4 DIV, 10 μM) read?
Answer: Its value is “no significant difference in cellular activity”.

Question: And the “cellular activity as assessed with Calcein” value ([1]; MIN6 cells at 4 DIV, 100 μM)?
Answer: The value was “no significant difference in cellular activity”.

Question: And the “cellular activity as assessed with Calcein” value ([1]; MIN6 cells at 4 DIV, 1,000 μM)?
Answer: Its value is “significant decrease in cellular activity”.

Question: And the “degree of cell death (PI)” value [2, 4]?
Answer: Its value is “no difference in a degree of cell death”.

Question: What about the “degree of cell death (PI)” value [2, 5] of the same compound?
Answer: Its value is “an average value increased, but there was still no significant difference from the negative control”.

Question: What about the “degree of cell death (PI)” value [2, 6] of the same compound?
Answer: Its value is “clear cell death was observed”.

Question: Which “cellular activity expressed as Calcein intensity” value ([1]; 10-minute administration) does the source give for CCP(CC)CC.OC[C@H]1OC(O)[C@H]([S][Au])[C@@H](O)[C@@H]1O (stereo partly drawn) [Compound E2-ADG] here?
Answer: Its value is “slightly lower than that for the E2-ALG, but there was no statistically significant difference therebetween”.

Question: And the “cellular activity expressed as Calcein intensity” value ([1]; 30-minute administration)?
Answer: Its value is “clear decrease in cellular activity”.

Question: What about the “occurrence of cell death (PI)” value [2] of the same compound?
Answer: The value was “no statistically significant difference”.

Question: And the “effect on the cells (proportion of dead cells, PI)” value ([2]; 10 μM)?
Answer: Its value is “larger than that of the negative control (the KRB solution alone) as an average value, but not significantly different”.

Question: And the “proportion of dead cells expressed as a PI value” [2]?
Answer: Its value is “significant increase in a proportion of dead cells”.

Question: And the “cytotoxicity (PI) eliminated by PHT” value [2]?
Answer: The value was “approximately 75%”.

Question: Which “cellular activity as assessed with Calcein” value ([1]; MIN6 cells at 4 DIV, 10 μM) does the source give for CP(C)C.OC[C@H]1OC(O)[C@H]([S][Au])[C@@H](O)[C@@H]1O (stereo partly drawn) [Compound M2-ADG] here?
Answer: The value was “no significant difference in cellular activity”.

Question: What about the “cellular activity as assessed with Calcein” value ([1]; MIN6 cells at 4 DIV, 100 μM) of the same compound?
Answer: The value was “no significant difference in cellular activity”.

Question: What about the “cellular activity as assessed with Calcein” value ([1]; MIN6 cells at 4 DIV, 1,000 μM) of the same compound?
Answer: Its value is “significant decrease in cellular activity”.

Question: And the “degree of cell death (PI)” value [2, 4]?
Answer: Its value is “no difference in a degree of cell death”.

Question: What about the “degree of cell death (PI)” value [2, 5] of the same compound?
Answer: The value was “an average value increased, but there was still no significant difference from the negative control”.

Question: And the “degree of cell death (PI)” value [2, 6]?
Answer: Its value is “clear cell death was observed”.

Question: Which “effect in nutritional deficit pancreatic cancer cells” value [3] does the source give for CC(=O)OC[C@H]1O[C@@H]([S-])[C@H](OC(C)=O)[C@@H](OC(C)=O)[C@@H]1OC(C)=O.CCP(CC)CC.[Au+] [Auranofin] here?
Answer: The value was “effective”.

Question: Which results are given for CCP(CC)CC.OC[C@@H]1OC(O)[C@@H]([S][Au])[C@H](O)[C@H]1O (stereo partly drawn) [Compound E2-ALG]?
Answer: cellular activity expressed as Calcein intensity ([1]; 10-minute administration): slightly decreased an average value of the cellular activity compared to the negative control group, but there was no statistically significant difference; cellular activity expressed as Calcein intensity ([1]; 30-minute administration): the cellular activity was clearly decreased compared to the negative control; occurrence of cell death (PI) [2]: no statistically significant difference; effect on the cells (proportion of dead cells, PI) ([2]; 10 μM): larger than that of the negative control (the KRB solution alone) as an average value, but not significantly different; proportion of dead cells expressed as a PI value [2]: significant increase in a proportion of dead cells; cytotoxicity (PI) eliminated by PHT [2]: approximately 75%

Question: For CCP(CC)CC.[Au+].[Cl-] [Et3PAuCl, chloro(triethylphosphine)gold(I)], which “cytotoxicity to colon cancer cells” value (colon cancer cells) is on record?
Answer: Its value is “cytotoxic”.

Question: For CC[PH](CC)(CC)[Au][S][C@@H]1OC(CO)[C@@H](O)[C@H](O)C1O (stereo partly drawn) [DGG, reference compound], which PI-positive cell death ([2]; 10 minutes) is on record?
Answer: Its PI-positive cell death is “more PI-positive cell death than the negative control”.

Question: What about the PI-positive cell death ([2]; 30 minutes) of the same compound?
Answer: The PI-positive cell death was “distinct PI-positive cell death”.

Question: Which PI-positive cell death ([2]; 10 minutes) does the source give for CC[PH](CC)(CC)[Au][S][C@H]1O[C@@H](CO)[C@H](O)[C@@H](O)[C@@H]1O [LGG, reference compound] here?
Answer: Its PI-positive cell death is “PI-positive cell death comparable to that of the negative control”.

Question: What about the PI-positive cell death ([2]; 30 minutes) of the same compound?
Answer: The PI-positive cell death was “only about as much PI-positive cell death as a negative control group”.

From patent US20240327450A1, “GLUCOSE DERIVATIVES AND ANTICANCER AGENT USING SAME” (ORBIO CORPORATION, priority 2021, published 2024)
